How the values were obtained:
Assay type in all cases: cell-based
[1] = system: Staphylococcus aureus X778; experiment: MIC, standard broth micro-dilution assay, SA X778
Procedure: (§1) The antibacterial efficacy of the present compounds is illustrated by Table III. The minimal inhibitory concentrations (MICs) were determined using a standard broth micro-dilution assay.

[2] = system: Sensitive Enterococcus faecium and faecalis; experiment: MIC, standard broth micro-dilution assay, Sensitive; conditions: geometric mean of 4-6 isolates
Procedure: as §1

Escherichia coli EC14 = experiment: MIC, standard broth micro-dilution assay, EC 14
Procedure: as §1

Enterococcus faecium 180 = experiment: MIC, standard broth micro-dilution assay, EF 180
Procedure: as §1

[3] = system: Enterococcus faecium 180-1; experiment: MIC, standard broth micro-dilution assay, EF 180-1
Procedure: as §1

[4] = system: Staphylococcus aureus SA1199A; experiment: MIC, standard broth micro-dilution assay, SA 1199A
Procedure: as §1

[5] = system: Staphylococcus aureus 491; experiment: MIC, standard broth micro-dilution assay, SA 491
Procedure: as §1

[6] = system: Staphylococcus aureus X400; experiment: MIC, standard broth micro-dilution assay, SA X400
Procedure: as §1

[7] = system: Staphylococcus aureus 447; experiment: MIC, standard broth micro-dilution assay, SA 447
Procedure: as §1

[8] = system: Staphylococcus epidermidis 270; experiment: MIC, standard broth micro-dilution assay, SE 270
Procedure: as §1

[9] = system: Staphylococcus haemolyticus 415; experiment: MIC, standard broth micro-dilution assay, SH 415
Procedure: as §1

[10] = system: Staphylococcus aureus 489; experiment: MIC, standard broth micro-dilution assay, SA 489
Procedure: as §1

[11] = system: Haemophilus influenzae RD; experiment: MIC, standard broth micro-dilution assay, HFRD
Procedure: as §1

[12] = system: Staphylococcus aureus SA1199; experiment: MIC, standard broth micro-dilution assay, SA 1199
Procedure: as §1

[13] = system: Enterococcus faecalis 2041; experiment: MIC, standard broth micro-dilution assay, EF 2041
Procedure: as §1

[14] = system: Resistant Enterococcus faecium and faecalis; experiment: MIC, standard broth micro-dilution assay, Resistant; conditions: geometric mean of 4-6 isolates
Procedure: as §1

[15] = system: Staphylococcus aureus 446; experiment: MIC, standard broth micro-dilution assay, SA 446
Procedure: as §1

[16] = system: Staphylococcus aureus S13E
Procedure: as §1

[17] = system: Enterococcus gallinarum 245; experiment: MIC, standard broth micro-dilution assay, EG 245
Procedure: as §1

[18] = system: Staphylococcus haemolyticus 105; experiment: MIC, standard broth micro-dilution assay, SH 105
Procedure: as §1

[19] = system: Enterococcus faecalis 276; experiment: MIC, standard broth micro-dilution assay, EF 276
Procedure: as §1

SMILES | minimal inhibitory concentration (MIC), SA X778 [1] | minimal inhibitory concentration (MIC), Sensitive [2] | minimal inhibitory concentration (MIC), EC 14 (Escherichia coli EC14) | minimal inhibitory concentration (MIC), EF 180 (Enterococcus faecium 180) | minimal inhibitory concentration (MIC), EF 180-1 [3] | minimal inhibitory concentration (MIC), SA 1199A [4] | minimal inhibitory concentration (MIC), SA 491 [5] | minimal inhibitory concentration (MIC), SA X400 [6] | minimal inhibitory concentration (MIC), SA 447 [7] | minimal inhibitory concentration (MIC), SE 270 [8] | minimal inhibitory concentration (MIC), SH 415 [9] | minimal inhibitory concentration (MIC), SA 489 [10] | minimal inhibitory concentration (MIC), HFRD [11] | minimal inhibitory concentration (MIC), SA 1199 [12] | minimal inhibitory concentration (MIC), EF 2041 [13] | minimal inhibitory concentration (MIC), Resistant [14] | minimal inhibitory concentration (MIC), SA 446 [15] | minimal inhibitory concentration (MIC), SA S13E [16] | minimal inhibitory concentration (MIC), EG 245 [17] | minimal inhibitory concentration (MIC), SH 105 [18] | further results
CC(C)CC(N)C(=O)NC1C(=O)NC(CC(N)=O)C(=O)NC2C(=O)NC3C(=O)NC(C(=O)NC(C(=O)O)c4cc(O)cc(O)c4-c4cc3ccc4O)C(OC3CC(C)(N)C(O)C(C)O3)c3ccc(c(Cl)c3)Oc3cc2cc(c3OC2OC(CO)C(O)C(O)C2OC2CC(C)(NCc3ccc(-c4ccccc4)cc3)C(O)C(C)O2)Oc2ccc(cc2Cl)C1O [Example 27, N^1-L-leucine derivative of N^DISACC-(p-phenylbenzyl)desleucylA82846B] | 1 | 1 | >64 | 4 | 0.25 | 0.5 | 1 | 2 | 1 | 0.25 | 2 | 4 | 64 | 1 | 1 | 16 | 2 | 2 | 0.5 | 0.125 | minimal inhibitory concentration (MIC), EF 276 [19]: 1
CC1OC(OC2c3ccc(c(Cl)c3)Oc3cc4cc(c3OC3OC(CO)C(O)C(O)C3OC3CC(C)(NCc5ccc(-c6ccccc6)cc5)C(O)C(C)O3)Oc3ccc(cc3Cl)C(O)C(NC(=O)C(Cc3ccc(Cl)cc3)NC(=O)OC(C)(C)C)C(=O)NC(CC(N)=O)C(=O)NC4C(=O)NC3C(=O)NC2C(=O)NC(C(=O)O)c2cc(O)cc(O)c2-c2cc3ccc2O)CC(C)(N)C1O [Example 28, N^1-[N-BOC-L-3-(p-chlorophenyl)alanine] derivative of N^DISACC-(p-phenylbenzyl)desleucylA82846B] | 1 | 1.7 | >64 | 2 | 0.5 | 1 | 2 | 2 | 2 | 1 | 4 | 1 | >64 | 2 | 2 | 13 | 4 | 2 | 2 | 2 | minimal inhibitory concentration (MIC), EF 276 [19]: 1
CC1OC(OC2c3ccc(c(Cl)c3)Oc3cc4cc(c3OC3OC(CO)C(O)C(O)C3OC3CC(C)(NCc5ccc(-c6ccccc6)cc5)C(O)C(C)O3)Oc3ccc(cc3Cl)C(O)C(NC(=O)C3CCCN3C(=O)OC(C)(C)C)C(=O)NC(CC(N)=O)C(=O)NC4C(=O)NC3C(=O)NC2C(=O)NC(C(=O)O)c2cc(O)cc(O)c2-c2cc3ccc2O)CC(C)(N)C1O [Example 29, N^1-(N-BOC-L-proline) derivative of N^DISACC-(p-phenylbenzyl)desleucylA82846B] | 0.125 | 1.2 | >64 | 4 | ≦.06 | ≦.06 | ≦.06 | 0.25 | 0.5 | ≦.06 | 0.5 | 0.25 | >64 | 0.125 | 0.125 | 27 | 2 | 0.5 | 2 | 0.125 | minimal inhibitory concentration (MIC), EF 276 [19]: 0.25
CC1OC(OC2c3ccc(c(Cl)c3)Oc3cc4cc(c3OC3OC(CO)C(O)C(O)C3OC3CC(C)(NCc5ccc(-c6ccccc6)cc5)C(O)C(C)O3)Oc3ccc(cc3Cl)C(O)C(NC(=O)C(CCCCNC(=O)OC(C)(C)C)NC(=O)OC(C)(C)C)C(=O)NC(CC(N)=O)C(=O)NC4C(=O)NC3C(=O)NC2C(=O)NC(C(=O)O)c2cc(O)cc(O)c2-c2cc3ccc2O)CC(C)(N)C1O [Example 30, N^1-(N,N′-DIBOC-L-lysine) derivative of N^DISACC-(p-phenylbenzyl)desleucylA82846B] | 1 | 2.3 | >64 | 8 | 0.5 | 1 | 2 | 2 | 2 | 1 | 2 | 1 | >64 | 2 | 1 | 38 | 8 | 2 | 2 | 2 | minimal inhibitory concentration (MIC), EF 276 [19]: 2
CC1OC(OC2c3ccc(c(Cl)c3)Oc3cc4cc(c3OC3OC(CO)C(O)C(O)C3OC3CC(C)(NCc5ccc(-c6ccccc6)cc5)C(O)C(C)O3)Oc3ccc(cc3Cl)C(O)C(NC(=O)C(N)CCCCN)C(=O)NC(CC(N)=O)C(=O)NC4C(=O)NC3C(=O)NC2C(=O)NC(C(=O)O)c2cc(O)cc(O)c2-c2cc3ccc2O)CC(C)(N)C1O [Example 31, N^1-L-lysine derivative of N^DISACC-(p-phenylbenzyl)desleucylA82846B] | 0.5 | 0.33 | >64 | 1 | 0.25 | 0.25 | 0.5 | 2 | 2 | 0.5 | 2 | 2 | >64 | 0.5 | 1 | 5.6 | 0.5 | 1 | 0.5 | 0.5 | minimal inhibitory concentration (MIC), EF 276 [19]: 2

Source: patent publication US6670446B1, “N1 modified glycopeptides” (Eli Lilly and Company, priority 1998, dated 2003)
